Data reported in PubChem BioAssay AID192 (DTP/NCI, 2004).
Values joined by “and” are separate entries in the source; they are usually repeats but may differ in a detail not shown here. Equal values may be shown once. Inconclusive results and toxic doses are left out. How the source made its calls: active means survival T/C of 150% or more; inactive means T/C below 125% in these data.

Tested on: BDF1 mice, B16 melanoma ip, median survival T/C
Assay: NCI In Vivo Anticancer Drug Screen. Data for tumor model B16 Melanoma (intraperitoneal) in B6D2F1 (BDF1) mice
Conditions: endpoint: median survival time, higher = longer survival
Method in brief: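 Read-out: survival or tumor size, given as treated/control ratio. Controls received vehicle only; animals bore transplantable tumors.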

[1] = dose: 6.25 mg/kg/injection, schedule: Q01DX009 (ip), vehicle: saline with Tween-80
[2] = dose: 12.5 mg/kg/injection, schedule: Q01DX009 (ip), vehicle: Klucel (hydroxypropylcellulose) (HPC)
[3] = dose: 12.5 mg/kg/injection, schedule: Q01DX009 (ip), vehicle: saline with Tween-80
[4] = dose: 25.0 mg/kg/injection, schedule: Q01DX009 (ip), vehicle: Klucel (hydroxypropylcellulose) (HPC)
[5] = dose: 25.0 mg/kg/injection, schedule: Q01DX009 (ip), vehicle: saline with Tween-80
[6] = dose: 50.0 mg/kg/injection, schedule: Q01DX009 (ip), vehicle: saline with Tween-80
[7] = dose: 50.0 mg/kg/injection, schedule: Q01DX009 (ip), vehicle: Klucel (hydroxypropylcellulose) (HPC)
[8] = dose: 100.0 mg/kg/injection, schedule: Q01DX009 (ip), vehicle: Klucel (hydroxypropylcellulose) (HPC)

Measured: T/C

CC(C)=CC(=O)OC1C2C(C)C(=O)OC2C(O)C(C)C2C=CC(=O)C21C (stereo not given)
inactive: dose: 6.25 mg/kg/injection, schedule: Q01DX009 (ip), vehicle: Klucel (hydroxypropylcellulose) (HPC) 95 % of control | [1] 91 % of control | [2] 97 % of control | [3] 94 % of control | [4] 93 % of control and 99 % of control | [5] 97 % of control

Nc1nc(N)c2c(ccc3c2ccn3Cc2cccc([N+](=O)[O-])c2)n1
inactive: dose: 1.56 mg/kg/injection, schedule: Q01DX009 (ip), vehicle: saline with Tween-80 90 % of control | dose: 3.12 mg/kg/injection, schedule: Q01DX009 (ip), vehicle: saline with Tween-80 100 % of control | [1] 119 % of control

ClC1=C(Cl)C2(Cl)C(COc3ccc(Cl)cc3)CC1(Cl)C2(Cl)Cl (stereo not given)
inactive: [3] 104 % of control | [5] 88 % of control | [6] 95 % of control

CC(Cc1ccccc1)NCCc1c2ccccc2nc2ccccc12 (stereo not given)
inactive: [2] 92 % of control | [4] 86 % of control and 100 % of control | [7] 90 % of control and 92 % of control | dose: 200.0 mg/kg/injection, schedule: Q01DX009 (ip), vehicle: Klucel (hydroxypropylcellulose) (HPC) 92 % of control

COc1cc2c(cc1OC)C13CCN4CC5=CCOC6CC(=O)N2C1C6C5CC43 (stereo not given) (tested in a mixture with another compound)
inactive: [4] 103 % of control | [7] 91 % of control

CCC[CH2][Hg][Cl]
inactive: dose: 0.75 mg/kg/injection, schedule: Q01DX009 (ip), vehicle: saline with Tween-80 91 % of control | dose: 1.5 mg/kg/injection, schedule: Q01DX009 (ip), vehicle: saline with Tween-80 92 % of control

CCC1OC(=O)CC(O)C(C)C(OC2OC(C)CC(N(C)C)C2O)C(CC=O)CC(C)C(=O)/C=C/C2(C)OC2C1C (stereo not given)
inactive: [7] 88 % of control | [8] 92 % of control

CCN(CC)CCCN1c2ccccc2Sc2ccc(Cl)cc21
inactive: dose: 0.78 mg/kg/injection, schedule: Q01DX009 (ip), vehicle: saline 91 % of control | dose: 1.56 mg/kg/injection, schedule: Q01DX009 (ip), vehicle: saline 104 % of control | dose: 3.12 mg/kg/injection, schedule: Q01DX009 (ip), vehicle: saline 102 % of control | dose: 6.25 mg/kg/injection, schedule: Q01DX009 (ip), vehicle: saline 93 % of control | dose: 12.5 mg/kg/injection, schedule: Q01DX009 (ip), vehicle: saline 91 % of control

C=C1N(C)c2ccc(Cl)cc2C1(C)C
inactive: [2] 90 % of control | [4] 90 % of control | [7] 88 % of control | [8] 87 % of control

Nc1ccc(N2CCNCC2)cc1
inactive: dose: 50.0 mg/kg/injection, schedule: Q01DX009 (ip), vehicle: saline 108 % of control | dose: 100.0 mg/kg/injection, schedule: Q01DX009 (ip), vehicle: saline 97 % of control | dose: 200.0 mg/kg/injection, schedule: Q01DX009 (ip), vehicle: saline 100 % of control

CC(=O)[C@@]1(O)CC[C@H]2[C@@H]3C[C@H](C)C4=CC(=O)C=C[C@]4(C)[C@@]3(F)[C@@H](O)C[C@@]21C
inactive: dose: 25.0 mg/kg/injection, schedule: Q01DX009 (sc), vehicle: steriod suspending solution 102 % of control | dose: 50.0 mg/kg/injection, schedule: Q01DX009 (sc), vehicle: steriod suspending solution 107 % of control

NC(=S)N/N=C/c1ccc(OC(=O)COc2ccc(Cl)cc2)cn1
inactive: [5] 111 % of control | [6] 116 % of control | dose: 100.0 mg/kg/injection, schedule: Q01DX009 (ip), vehicle: saline with Tween-80 117 % of control

O=C1C2CC=CCC2C(=O)N1SC(Cl)(Cl)Cl (stereo not given)
inactive: dose: 0.2 mg/kg/injection, schedule: Q01DX009 (ip), vehicle: saline with Tween-80 98 % of control | dose: 0.4 mg/kg/injection, schedule: Q01DX009 (ip), vehicle: saline with Tween-80 100 % of control | dose: 0.8 mg/kg/injection, schedule: Q01DX009 (ip), vehicle: saline with Tween-80 97 % of control | dose: 3.13 mg/kg/injection, schedule: Q01DX009 (ip), vehicle: saline with Tween-80 88 % of control

O=S1(=O)N2CN3CN(C2)CN1C3
inactive: [7] 103 % of control | [8] 86 % of control
